Paper PMC5218480 (PLoS ONE, 2017)

System: MV-4-11 cells
Assay: Gene expression microarray analysis (Affymetrix PrimeView) and GSEA
Format: cell-based, human
Parameters: RFU PODN (11730768_x_at) / Fold change /veh PODN (11730768_x_at) / RFU LINC00158 (11744669_a_at) / Fold change /veh LINC00158 (11744669_a_at) / RFU DUSP10 (11751237_a_at) / Fold change /veh DUSP10 (11751237_a_at) / RFU ID3 (11757404_x_at) / Fold change /veh ID3 (11757404_x_at) / RFU PLEKHG5 (11737974_s_at) / Fold change /veh PLEKHG5 (11737974_s_at) / RFU LRRC4B (11730491_at) / Fold change /veh LRRC4B (11730491_at) / RFU GIMAP4 (11747438_a_at) / Fold change /veh GIMAP4 (11747438_a_at) / RFU KRT8 (11758183_x_at) / Fold change /veh KRT8 (11758183_x_at) / RFU CNN1 (11734310_a_at) / Fold change /veh CNN1 (11734310_a_at) / RFU VPS37D (11726825_at) / Fold change /veh VPS37D (11726825_at) / RFU C10orf10 (11716522_x_at) / Fold change /veh C10orf10 (11716522_x_at) / RFU KIR2DL2 /// KIR2DL4 /// KIR2DL5A /// KIR2DL5B /// KIR2DS1 /// KIR2DS2 /// KIR2DS3 /// KIR2DS4 /// KIR3DL3 /// KIR3DL3 /// KIR3DS1 (11738374_at) / Fold change /veh KIR2DL2 /// KIR2DL4 /// KIR2DL5A /// KIR2DL5B /// KIR2DS1 /// KIR2DS2 /// KIR2DS3 /// KIR2DS4 /// KIR3DL3 /// KIR3DL3 /// KIR3DS1 (11738374_at) / RFU C1QL1 (11718748_at) / Fold change /veh C1QL1 (11718748_at) / RFU TMPRSS4 (11747572_a_at) / Fold change /veh TMPRSS4 (11747572_a_at) / RFU HAMP (11756126_x_at) / Fold change /veh HAMP (11756126_x_at) / RFU RNFT2 (11725882_a_at) / Fold change /veh RNFT2 (11725882_a_at) / RFU NR4A2 (11747474_a_at) / Fold change /veh NR4A2 (11747474_a_at) / RFU ABCC12 (11746883_a_at) / Fold change /veh ABCC12 (11746883_a_at) / RFU TMEM136 (11760407_x_at) / Fold change /veh TMEM136 (11760407_x_at) / RFU CLDN22 /// WWC2 (11732394_at) / Fold change /veh CLDN22 /// WWC2 (11732394_at) / RFU HLA-DPB1 (11760878_x_at) / Fold change /veh HLA-DPB1 (11760878_x_at) / RFU SPINT1 (11716480_a_at) / Fold change /veh SPINT1 (11716480_a_at) / RFU GAP43 (11754022_s_at) / Fold change /veh GAP43 (11754022_s_at) / RFU A4GNT (11735810_at) / Fold change /veh A4GNT (11735810_at) / RFU PRB3 (11715151_x_at) / Fold change /veh PRB3 (11715151_x_at) / RFU TUBB4B (11761932_at) / Fold change /veh TUBB4B (11761932_at) / RFU CAPN14 (11732068_a_at) / Fold change /veh CAPN14 (11732068_a_at) / RFU TMCC2 (11721928_a_at) / Fold change /veh TMCC2 (11721928_a_at) / RFU IRGQ (11745062_a_at) / Fold change /veh IRGQ (11745062_a_at) / RFU FAM174B (11720279_a_at) / Fold change /veh FAM174B (11720279_a_at) / RFU TMPRSS4 (11748680_a_at) / Fold change /veh TMPRSS4 (11748680_a_at) / RFU FAM212B (11763350_a_at) / Fold change /veh FAM212B (11763350_a_at) / RFU PLEKHG5 (11743358_a_at) / Fold change /veh PLEKHG5 (11743358_a_at) / RFU ZSCAN30 (11745921_a_at) / Fold change /veh ZSCAN30 (11745921_a_at) / RFU CMKLR1 (11741424_a_at) / Fold change /veh CMKLR1 (11741424_a_at) / RFU LOC101060620 /// MAPK8IP1 (11723275_at) / Fold change /veh LOC101060620 /// MAPK8IP1 (11723275_at) / RFU SPTSSB (11747773_x_at) / Fold change /veh SPTSSB (11747773_x_at) / RFU PRSS12 (11739890_at) / Fold change /veh PRSS12 (11739890_at) / RFU BIN1 (11741810_x_at) / Fold change /veh BIN1 (11741810_x_at) / RFU WNT11 (11732464_a_at) / Fold change /veh WNT11 (11732464_a_at) / RFU C10orf10 (11716521_a_at) / Fold change /veh C10orf10 (11716521_a_at) / RFU C5orf56 (11738089_at) / Fold change /veh C5orf56 (11738089_at) / RFU CYB561 (11721691_x_at) / Fold change /veh CYB561 (11721691_x_at) / RFU ANKRD19P (11752326_a_at) / Fold change /veh ANKRD19P (11752326_a_at) / RFU OR2T12 /// OR2T33 /// OR2T8 (11738714_s_at) / Fold change /veh OR2T12 /// OR2T33 /// OR2T8 (11738714_s_at) / RFU VCAN (11748164_a_at) / Fold change /veh VCAN (11748164_a_at) / RFU JSRP1 (11732532_at) / Fold change /veh JSRP1 (11732532_at) / RFU KRTAP10-11 (11738290_x_at) / Fold change /veh KRTAP10-11 (11738290_x_at) / RFU MYO3A (11730013_a_at) / Fold change /veh MYO3A (11730013_a_at) / RFU EBF3 (11725865_a_at) / Fold change /veh EBF3 (11725865_a_at) / RFU CAMK2N1 (11719241_x_at) / Fold change /veh CAMK2N1 (11719241_x_at) / RFU C5orf56 (11738088_a_at) / Fold change /veh C5orf56 (11738088_a_at) / RFU OLFML3 (11715873_a_at) / Fold change /veh OLFML3 (11715873_a_at) / RFU LOC100653217 /// NTM (11731650_a_at) / Fold change /veh LOC100653217 /// NTM (11731650_a_at) / RFU MAPK11 (11762145_a_at) / Fold change /veh MAPK11 (11762145_a_at) / RFU FIZ1 (11724087_x_at) / Fold change /veh FIZ1 (11724087_x_at) / RFU OASL (11726364_x_at) / Fold change /veh OASL (11726364_x_at) / RFU SOX15 (11748057_x_at) / Fold change /veh SOX15 (11748057_x_at) / RFU CD79A (11719716_a_at) / Fold change /veh CD79A (11719716_a_at) / RFU HIST1H1D (11736915_at) / Fold change /veh HIST1H1D (11736915_at) / RFU CASKIN2 (11723855_a_at) / Fold change /veh CASKIN2 (11723855_a_at) / RFU LOC730098 (11760151_x_at) / Fold change /veh LOC730098 (11760151_x_at) / RFU OR4N2 (11742367_at) / Fold change /veh OR4N2 (11742367_at) / RFU PRRT2 (11749266_a_at) / Fold change /veh PRRT2 (11749266_a_at) / RFU SNX32 (11753110_a_at) / Fold change /veh SNX32 (11753110_a_at) / RFU CDHR5 (11726645_a_at) / Fold change /veh CDHR5 (11726645_a_at) / RFU RCAN1 (11760418_a_at) / Fold change /veh RCAN1 (11760418_a_at) / RFU FAM167A (11723789_a_at) / Fold change /veh FAM167A (11723789_a_at) / RFU FAM26E (11764081_at) / Fold change /veh FAM26E (11764081_at) / RFU ISYNA1 (11749810_s_at) / Fold change /veh ISYNA1 (11749810_s_at) / RFU ACY1 (11761880_at) / Fold change /veh ACY1 (11761880_at) / RFU 11764098_at / Fold change /veh 11764098_at / RFU SAMD14 (11745864_x_at) / Fold change /veh SAMD14 (11745864_x_at) / RFU NPB (11741838_a_at) / Fold change /veh NPB (11741838_a_at) / RFU TMPRSS6 (11731388_a_at) / Fold change /veh TMPRSS6 (11731388_a_at) / RFU KRTAP10-2 (11738614_at) / Fold change /veh KRTAP10-2 (11738614_at) / RFU ARHGAP8 /// PRR5-ARHGAP8 (11727945_x_at) / Fold change /veh ARHGAP8 /// PRR5-ARHGAP8 (11727945_x_at) / RFU KRTAP5-7 /// NADSYN1 (11734609_at) / Fold change /veh KRTAP5-7 /// NADSYN1 (11734609_at) / RFU RASL12 (11751679_a_at) / Fold change /veh RASL12 (11751679_a_at) / RFU CDKN2B (11736163_a_at) / Fold change /veh CDKN2B (11736163_a_at) / RFU PRF1 (11729649_at) / Fold change /veh PRF1 (11729649_at) / RFU, ZNF638 /// ZNF638-IT1 / Fold change vs veh, ZNF638 /// ZNF638-IT1 / RFU, PANK3 / Fold change vs veh, PANK3 / RFU, SH3YL1 / Fold change vs veh, SH3YL1 / RFU, ZEB2 / Fold change vs veh, ZEB2 / RFU, NRIP1 / Fold change vs veh, NRIP1 / RFU, PTTG1IP / Fold change vs veh, PTTG1IP / RFU, CAPN2 / Fold change vs veh, CAPN2 / RFU, MED14 / Fold change vs veh, MED14 / RFU, SNORA58 / Fold change vs veh, SNORA58 / RFU, C1orf63 / Fold change vs veh, C1orf63 / RFU, LRRFIP1 / Fold change vs veh, LRRFIP1 / RFU, NDUFAF7 / Fold change vs veh, NDUFAF7 / RFU, SLC12A2 / Fold change vs veh, SLC12A2 / RFU, IBTK / Fold change vs veh, IBTK / RFU, ESF1 / Fold change vs veh, ESF1 / Fold change vs veh, TMEM50B / RFU, TAOK1 / Fold change vs veh, TAOK1 / RFU, ACBD3 / Fold change vs veh, ACBD3 / RFU, TMA16 / Fold change vs veh, TMA16 / RFU, RWDD3 / Fold change vs veh, RWDD3 / RFU, BCAT1 / Fold change vs veh, BCAT1 / RFU, EDEM3 / Fold change vs veh, EDEM3 / RFU, TMEM33 / Fold change vs veh, TMEM33 / RFU, WDR75 / Fold change vs veh, WDR75 / RFU, AHCTF1 / Fold change vs veh, AHCTF1 / RFU, TFRC / Fold change vs veh, TFRC / RFU, ZDHHC17 / Fold change vs veh, ZDHHC17 / RFU, NOM1 / Fold change vs veh, NOM1 / RFU, ARL8B / Fold change vs veh, ARL8B / RFU, ZBTB11 / Fold change vs veh, ZBTB11 / RFU, TAMM41 / Fold change vs veh, TAMM41 / RFU, KIAA1704 /// LOC100996395 / Fold change vs veh, KIAA1704 /// LOC100996395 / RFU, ING1 / Fold change vs veh, ING1 / RFU, TRMT61B / Fold change vs veh, TRMT61B / RFU, FUBP3 / Fold change vs veh, FUBP3 / RFU, TP53 / Fold change vs veh, TP53 / RFU, TNKS2 / Fold change vs veh, TNKS2 / RFU, ZFP14 / Fold change vs veh, ZFP14 / RFU, ACTR2 / Fold change vs veh, ACTR2 / RFU, PPP3R1 / Fold change vs veh, PPP3R1 / RFU, PIK3R1 / Fold change vs veh, PIK3R1 / RFU, HNRNPA1 / Fold change vs veh, HNRNPA1 / RFU, RNF170 / Fold change vs veh, RNF170 / RFU, ZNF28 / Fold change vs veh, ZNF28 / RFU, RNGTT / Fold change vs veh, RNGTT / RFU, OGT / Fold change vs veh, OGT / RFU, BRD1 / Fold change vs veh, BRD1 / RFU, MARS / Fold change vs veh, MARS / RFU, ZNF655 / Fold change vs veh, ZNF655 / RFU, FAHD1 / Fold change vs veh, FAHD1 / RFU, BDP1 / Fold change vs veh, BDP1 / RFU, LRRCC1 / Fold change vs veh, LRRCC1 / RFU, ARID1A / Fold change vs veh, ARID1A / RFU, ZNF146 / Fold change vs veh, ZNF146 / RFU, ZNF330 / Fold change vs veh, ZNF330 / RFU, GPN3 / Fold change vs veh, GPN3 / RFU, C9orf123 / Fold change vs veh, C9orf123 / RFU, N4BP2L2 / Fold change vs veh, N4BP2L2 / RFU, ARFIP1 / Fold change vs veh, ARFIP1 / RFU, FAM179B / Fold change vs veh, FAM179B / RFU, BCL10 / Fold change vs veh, BCL10 / RFU, UHRF1BP1L / Fold change vs veh, UHRF1BP1L / RFU, BET1 / Fold change vs veh, BET1 / RFU, CNOT2 / Fold change vs veh, CNOT2 / RFU, ZNF268 / Fold change vs veh, ZNF268 / Fold change vs veh, ZNF507 / RFU, DGCR2 / Fold change vs veh, DGCR2 / RFU, WDSUB1 / Fold change vs veh, WDSUB1 / Fold change vs veh, HSP90B1 /// MIR3652 / RFU, ADSS / Fold change vs veh, ADSS / RFU, GK / Fold change vs veh, GK / RFU, ZNF148 / Fold change vs veh, ZNF148 / RFU, TAF9 / Fold change vs veh, TAF9 / RFU, SLC1A5 / Fold change vs veh, SLC1A5 / RFU, SLMO2 / Fold change vs veh, SLMO2 / RFU, ABCC4 / Fold change vs veh, ABCC4 / RFU, LOC101060439 /// RAP1B / Fold change vs veh, LOC101060439 /// RAP1B / RFU, RFX7 / Fold change vs veh, RFX7 / RFU, GTPBP10 / Fold change vs veh, GTPBP10 / RFU, CNEP1R1 / Fold change vs veh, CNEP1R1 / RFU, BIVM-ERCC5 /// ERCC5 / Fold change vs veh, BIVM-ERCC5 /// ERCC5 / RFU, ILF3 / Fold change vs veh, ILF3 / RFU 11762660_at / Fold change /veh 11762660_at / RFU VCAN (11757783_s_at) / Fold change /veh VCAN (11757783_s_at) / RFU DDX43 (11728927_at) / Fold change /veh DDX43 (11728927_at) / RFU KRT8 (11758188_x_at) / Fold change /veh KRT8 (11758188_x_at) / RFU NKD1 (11759106_at) / Fold change /veh NKD1 (11759106_at) / RFU SRD5A1 (11742802_a_at) / Fold change /veh SRD5A1 (11742802_a_at) / RFU TPSAB1 /// TPSB2 (11721975_s_at) / Fold change /veh TPSAB1 /// TPSB2 (11721975_s_at) / RFU GSTM3 (11746129_a_at) / Fold change /veh GSTM3 (11746129_a_at) / RFU IL23R (11737362_x_at) / Fold change /veh IL23R (11737362_x_at) / RFU TMEM51 (11727254_a_at) / Fold change /veh TMEM51 (11727254_a_at) / RFU PIWIL2 (11732686_x_at) / Fold change /veh PIWIL2 (11732686_x_at) / RFU ORM1 (11744905_x_at) / Fold change /veh ORM1 (11744905_x_at) / RFU CCDC152 (11743942_at) / Fold change /veh CCDC152 (11743942_at) / RFU ECM1 (11717891_a_at) / Fold change /veh ECM1 (11717891_a_at) / RFU IL23R (11748794_a_at) / Fold change /veh IL23R (11748794_a_at) / RFU TNFAIP8L3 (11732012_x_at) / Fold change /veh TNFAIP8L3 (11732012_x_at) / RFU MBOAT4 (11741988_at) / Fold change /veh MBOAT4 (11741988_at) / RFU 11764193_at / Fold change /veh 11764193_at / RFU TMEM53 (11763286_at) / Fold change /veh TMEM53 (11763286_at) / RFU MAGEB2 (11727129_at) / Fold change /veh MAGEB2 (11727129_at) / RFU TMEM200A (11744735_a_at) / Fold change /veh TMEM200A (11744735_a_at) / RFU CCDC152 (11751479_a_at) / Fold change /veh CCDC152 (11751479_a_at) / RFU FAM211A (11726209_a_at) / Fold change /veh FAM211A (11726209_a_at) / RFU RGS16 (11746705_a_at) / Fold change /veh RGS16 (11746705_a_at) / RFU VCAN (11755009_s_at) / Fold change /veh VCAN (11755009_s_at) / RFU RHOB (11743442_s_at) / Fold change /veh RHOB (11743442_s_at) / RFU RGS16 (11720943_a_at) / Fold change /veh RGS16 (11720943_a_at) / RFU RGS16 (11720944_at) / Fold change /veh RGS16 (11720944_at) / RFU, VPS4B / Fold change vs veh, VPS4B / RFU, CREB1 / Fold change vs veh, CREB1 / RFU, DNAJC13 / Fold change vs veh, DNAJC13 / RFU, GNAQ / Fold change vs veh, GNAQ / RFU, CDK5R1 / Fold change vs veh, CDK5R1 / RFU, ZRANB3 / Fold change vs veh, ZRANB3 / RFU, CUL4A / Fold change vs veh, CUL4A / RFU, CCNY / Fold change vs veh, CCNY / RFU, UFL1 / Fold change vs veh, UFL1 / RFU, COG3 / Fold change vs veh, COG3 / RFU, DIAPH2 / Fold change vs veh, DIAPH2 / RFU, SKA2 / Fold change vs veh, SKA2 / RFU, AFF3 / Fold change vs veh, AFF3 / RFU, LMF1 / Fold change vs veh, LMF1 / RFU, IPO11 / Fold change vs veh, IPO11 / RFU, DFFB / Fold change vs veh, DFFB / RFU, FOXP1 / Fold change vs veh, FOXP1 / RFU, CARD8 / Fold change vs veh, CARD8 / RFU, STRN3 / Fold change vs veh, STRN3 / RFU, ADK / Fold change vs veh, ADK / RFU, RASSF2 / Fold change vs veh, RASSF2 / RFU, WIPF1 / Fold change vs veh, WIPF1 / RFU, LARP1B / Fold change vs veh, LARP1B / RFU, RASA1 / Fold change vs veh, RASA1 / RFU, RB1 / Fold change vs veh, RB1 / RFU, PPFIA1 / Fold change vs veh, PPFIA1 / RFU, MAT2A / Fold change vs veh, MAT2A / RFU, CCT5 / Fold change vs veh, CCT5 / RFU, WDR92 / Fold change vs veh, WDR92 / RFU, CUX1 / Fold change vs veh, CUX1 / RFU, TTC7A / Fold change vs veh, TTC7A / RFU, TMEM135 / Fold change vs veh, TMEM135 / RFU, DEPTOR / Fold change vs veh, DEPTOR / RFU, CPM / Fold change vs veh, CPM / RFU, DNAJB6 / Fold change vs veh, DNAJB6 / RFU, CACNA2D3 / Fold change vs veh, CACNA2D3 / RFU, DTX4 / Fold change vs veh, DTX4 / RFU, TFCP2 / Fold change vs veh, TFCP2 / RFU, GMCL1 /// GMCL1P1 / Fold change vs veh, GMCL1 /// GMCL1P1 / RFU, AEBP2 / Fold change vs veh, AEBP2 / RFU, SNHG1 /// SNORD22 /// SNORD25 /// SNORD26 /// SNORD27 /// SNORD28 /// SNORD29 /// SNORD31 / Fold change vs veh, SNHG1 /// SNORD22 /// SNORD25 /// SNORD26 /// SNORD27 /// SNORD28 /// SNORD29 /// SNORD31 / Fold change (Aza/veh), C12orf56 (ProbeSet 11735607_a_at) / Fold change (ACY-1035/veh), C12orf56 (ProbeSet 11735607_a_at) / Fold change (Aza/veh), FGFR1OP (ProbeSet 11751329_s_at) / Fold change (ACY-1035/veh), FGFR1OP (ProbeSet 11751329_s_at) / Fold change (Aza/veh), VPS36 (ProbeSet 11739960_a_at) / Fold change (ACY-1035/veh), VPS36 (ProbeSet 11739960_a_at) / RFU SYPL1 (11715823_x_at) / Fold change /veh SYPL1 (11715823_x_at) / RFU IGFBP7 (11715501_s_at) / Fold change /veh IGFBP7 (11715501_s_at) / RFU REEP3 (11722064_at) / Fold change /veh REEP3 (11722064_at) / RFU IGLL1 (11728026_x_at) / Fold change /veh IGLL1 (11728026_x_at): dose or concentration left out as unconfirmed
Conditions: MV-4-11 cells, 48 hours

Nc1ccc(-c2cccs2)cc1NC(=O)c1ccc2c(c1)cc(C1CC1)n2CCN1CCOCC1 [ACY-1035]
Fold change /veh ISYNA1 (11749810_s_at): 0.96
